According to patent publication US8753691B2, “Antiviral colloidal silver composition” (priority 1999, dated 2014):
≈ marks a conversion by molar mass, not a printed value. Where “and” joins values, the source holds several entries; their conditions need not be identical. Equal entries are not always repeated. Where two headings read alike, the source gives them in different places.

What was measured:
K. oxytoca = test: MIC/MBC broth microdilution; assay type: cell-based
S. aureus = test: MIC/MBC broth microdilution; assay type: cell-based
S arizona = test: MIC/MBC broth microdilution; assay type: cell-based; details: for MIC: read-out: MIC (minimum inhibitory concentration); for MBC: read-out: MBC (minimum bactericidal concentration)
P. aeruginosa = test: MIC/MBC broth microdilution; assay type: cell-based
E. coli = test: MIC/MBC broth microdilution; assay type: cell-based
S. typhimurium = test: MIC/MBC broth microdilution; assay type: cell-based; details: for MBC: read-out: MBC (minimum bactericidal concentration)
S. mutans = test: MIC/MBC broth microdilution; assay type: cell-based
S. boydii = test: MIC/MBC broth microdilution; assay type: cell-based; details: for MBC: read-out: MBC (minimum bactericidal concentration)
E. cloacae = test: MIC/MBC broth microdilution; assay type: cell-based
S. pyogenes = test: MIC/MBC broth microdilution; assay type: cell-based
K. pneumoniae = test: MIC/MBC broth microdilution; assay type: cell-based
S. faecalis = test: MIC/MBC broth microdilution; assay type: cell-based
S. pneumoniae = test: MIC/MBC broth microdilution; assay type: cell-based
S gordonii = test: MIC/MBC broth microdilution; assay type: cell-based; details: for MIC: read-out: MIC (minimum inhibitory concentration)
E. aerogenes = test: MIC/MBC broth microdilution; assay type: cell-based
[1] = tested on: Salmonella choleraesuis ATCC #10708; details: 5, 10 or 15 min
Procedure: (§1) At 30 second intervals, 0.5 ml of each challenge culture was added to the appropriate dilutions of phenol, agitated, and replaced into the water bath: After the appropriate exposure times of 5, 10, and 15 minutes, a loopful of suspension was removed from the assay tubes and transferred to tubes of letheen broth (LETH).

[2] = tested on: Pseudomonas aeruginosa ATCC #15442
Procedure: as §1

[3] = tested on: Staphylococcus aureus ATCC #6538
Procedure: as §1

[4] = target: Moloney murine leukemia virus reverse transcriptase (MoMuLV) (Moloney murine leukemia virus, UniProt P03355); test: Test of reverse transcriptase inhibition; details: 3 μl inhibitor; 37° C. 2 hours; AZT at 0.625 microgram/ml

## CC1(C)S[C@@H]2[C@H](NC(=O)Cc3ccccc3)C(=O)N2[C@H]1C(=O)O [Penicillin G]
K. oxytoca
  MIC (minimum inhibitory concentration): >5.0 ppm
S. aureus
  MBC (minimum bactericidal concentration): > 5.0 ppm
  MIC (minimum inhibitory concentration): 2.5 ppm
S arizona
  MIC (minimum inhibitory concentration): >5.0 ppm
P. aeruginosa
  MBC (minimum bactericidal concentration): > 5.0 ppm
  MIC (minimum inhibitory concentration): 0.13 ppm
E. coli
  MIC (minimum inhibitory concentration): >5.0 ppm
S. typhimurium
  MIC (minimum inhibitory concentration): >5.0 ppm
S. mutans
  MBC (minimum bactericidal concentration): > 5 ppm
  MIC (minimum inhibitory concentration): 0.521 ppm
S. boydii
  MIC (minimum inhibitory concentration): >5.0 ppm
E. cloacae
  MIC (minimum inhibitory concentration): >5.0 ppm
S. pyogenes
  MIC (minimum inhibitory concentration): >5.0 ppm
K. pneumoniae
  MIC (minimum inhibitory concentration): >5.0 ppm
S. faecalis
  MBC (minimum bactericidal concentration): 5.0/>5.0 ppm
  MIC (minimum inhibitory concentration): 5.0/>5.0 ppm
S. pneumoniae
  MBC (minimum bactericidal concentration): 0.019/0.019 ppm
  MIC (minimum inhibitory concentration): 0.019/0.019 ppm
S gordonii
  MBC (minimum bactericidal concentration): 0.039 ppm
  MIC (minimum inhibitory concentration): 0.009 ppm
E. aerogenes
  MIC (minimum inhibitory concentration): >5.0 ppm

## CC1COc2c(N3CCN(C)CC3)c(F)cc3c(=O)c(C(=O)O)cn1c23 (stereo not shown) [Ofloxacin]
S arizona
  MIC: 0.078 µg/mL (≈ 0.216 µM)
S. typhimurium; Salmonella enterica
  MBC: 0.156 µg/mL (≈ 0.432 µM)
S. typhimurium; Salmonella enterica, read-out: MIC (minimum inhibitory concentration)
  MIC: 0.078 µg/mL (≈ 0.216 µM)
S. boydii; S. boydii
  MBC: 0.156 µg/mL (≈ 0.432 µM)
S gordonii; read-out: MBC (minimum bactericidal concentration)
  MBC: 5 µg/mL (≈ 13.8 µM)
S gordonii
  MIC: 2.5 µg/mL (≈ 6.92 µM)
E. aerogenes; Klebsiella aerogenes, read-out: MBC (minimum bactericidal concentration)
  MBC: 0.156 µg/mL (≈ 0.432 µM)
E. aerogenes; Klebsiella aerogenes, read-out: MIC (minimum inhibitory concentration)
  MIC: 0.078 µg/mL (≈ 0.216 µM)

## CC[C@H]1OC(=O)[C@H](C)[C@@H](O[C@H]2C[C@@](C)(OC)[C@@H](O)[C@H](C)O2)[C@H](C)[C@@H](O[C@@H]2O[C@H](C)C[C@H](N(C)C)[C@H]2O)[C@](C)(O)C[C@@H](C)C(=O)[C@H](C)[C@@H](O)[C@]1(C)O [Erythromycin]
S arizona
  MBC: > 5 µg/mL
S. boydii; S. boydii
  MBC: > 5 µg/mL
S. boydii; S. boydii, read-out: MIC (minimum inhibitory concentration)
  MIC: 5 µg/mL (≈ 6.81 µM)
S gordonii
  MIC: 0.005 µg/mL (≈ 0.00681 µM)

## CN(C)[C@@H]1C(O)=C(C(N)=O)C(=O)[C@@]2(O)C(O)=C3C(=O)c4c(O)cccc4[C@@](C)(O)[C@H]3C[C@@H]12 [Tetracycline]
K. oxytoca; Klebsiella oxytoca, read-out: MBC (minimum bactericidal concentration)
  MBC: > 5 µg/mL
S arizona
  MBC: > 5 µg/mL
  MIC: 0.625 µg/mL (≈ 1.41 µM)
S. typhimurium; Salmonella enterica
  MBC: > 5 µg/mL
S. boydii; S. boydii
  MBC: > 5 µg/mL

## Oc1ccccc1 [phenol]
[1]; 1:90 phenol
  growth after phenol treatment: no growth
[1]; 1:100 phenol
  growth after phenol treatment: showed growth
[2]; 1:80 phenol, 5 or 10 min
  growth after phenol treatment: showed growth
[2]; 1:80 phenol, 15 min
  growth after phenol treatment: no growth
[2]; 1:90 phenol, 5, 10 or 15 min
  growth after phenol treatment: showed growth
[3]; 1:60 phenol, 5 or 10 min
  growth after phenol treatment: showed growth
[3]; 1:60 phenol, 15 min
  growth after phenol treatment: no growth
[3]; 1:70 phenol, 5, 10 or 15 min
  growth after phenol treatment: showed growth

## CCN1CCN(C(=O)N[C@@H](C(=O)N[C@@H]2C(=O)N3C(C(=O)O)=C(CSc4nnnn4C)CS[C@H]23)c2ccc(O)cc2)C(=O)C1=O [Cefaperazone]
K. oxytoca
  MBC (minimum bactericidal concentration): > 5.0 ppm
  MIC (minimum inhibitory concentration): 1.25 ppm
S. aureus
  MBC (minimum bactericidal concentration): 5.0/5.0 ppm
  MIC (minimum inhibitory concentration): 5.0/5.0 ppm
S arizona
  MBC (minimum bactericidal concentration): > 5.0 ppm
  MIC (minimum inhibitory concentration): 0.833 ppm
P. aeruginosa
  MBC (minimum bactericidal concentration): 5.0 ppm
  MIC (minimum inhibitory concentration): 2.5 ppm
E. coli
  MBC (minimum bactericidal concentration): > 5.0 ppm
  MIC (minimum inhibitory concentration): 0.625 ppm
S. typhimurium
  MBC (minimum bactericidal concentration): 2.5 ppm
  MIC (minimum inhibitory concentration): 1.25 ppm
S. mutans
  MBC (minimum bactericidal concentration): > 5 ppm
  MIC (minimum inhibitory concentration): 1.25 ppm
S. boydii; S. boydii
  MBC (minimum bactericidal concentration): 0.625/0.625 ppm
  MIC (minimum inhibitory concentration): 0.625/0.625 ppm
S. pyogenes
  MBC (minimum bactericidal concentration): 1.25 ppm
  MIC (minimum inhibitory concentration): 0.313 ppm
K. pneumoniae
  MIC (minimum inhibitory concentration): >5.0 ppm
S. faecalis
  MIC (minimum inhibitory concentration): >5.0 ppm
S. pneumoniae
  MBC (minimum bactericidal concentration): 0.313/0.313 ppm
  MIC (minimum inhibitory concentration): 0.313/0.313 ppm
S gordonii
  MBC (minimum bactericidal concentration): 1.25/1.25 ppm
  MIC (minimum inhibitory concentration): 1.25/1.25 ppm
E. aerogenes
  MBC (minimum bactericidal concentration): > 5.0 ppm
  MIC (minimum inhibitory concentration): 2.92 ppm

## Cc1cn([C@H]2C[C@H](N=[N+]=[N-])[C@@H](CO)O2)c(=O)[nH]c1=O [AZT, zidovudine (AZT)]
[4]
  % Inhibition (reverse transcriptase): 31.33% and 18.06%
